Data reported in patent US7317025B2, “Non-peptidic NPY Y2 receptor inhibitors” (Johnson & Johnson Pharmaceutical Research & Development, LLC, priority 2003, dated 2008).
Like-named read-outs stand apart in the source and are kept apart here.

Target: T1, Y2 receptors (Homo sapiens, UniProt P49146)
T1 construct: KAN-Ts endogenously expressing Y2 receptors; endogenous in cells; host or cells: KAN-Ts cells (membrane preparation)
T1 sequence (P49146 1-381): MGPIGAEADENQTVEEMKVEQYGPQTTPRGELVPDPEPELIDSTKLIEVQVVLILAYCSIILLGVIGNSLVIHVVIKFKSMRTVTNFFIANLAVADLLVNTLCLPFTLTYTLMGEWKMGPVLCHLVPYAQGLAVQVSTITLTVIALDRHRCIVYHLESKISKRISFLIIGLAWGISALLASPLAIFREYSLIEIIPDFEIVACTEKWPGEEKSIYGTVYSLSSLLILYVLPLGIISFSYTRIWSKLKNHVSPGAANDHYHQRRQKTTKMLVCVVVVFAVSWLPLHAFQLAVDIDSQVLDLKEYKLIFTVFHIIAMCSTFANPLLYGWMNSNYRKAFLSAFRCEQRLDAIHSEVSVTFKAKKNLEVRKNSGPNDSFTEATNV
Experiment: Radioligand binding assay, [125I]PYY, KAN-Ts membranes
Experimental: Radioligand Binding Assay
KAN-Ts endogenously expressing Y2 receptors were used for the radioligand binding assay. Cells were grown to confluence on 150 cm^2 tissue culture plates, washed with phosphate-buffered saline (PBS), and scraped into 50 mL tubes. After centrifugation, the supernatant was aspirated, and the pellets frozen and stored at −80° C. Thawed pellets were homogenized with a polytron tissue grinder for 15 sec in 20 mM Tris-HCl, 5 mM EDTA. The homogenate was centrifuged at 800×g for 5 min and the collected supernatant was recentrifuged at 25000×g for 25 min. The resulting pellet was resuspended in binding buffer (20 mM HEPES, 120 mM NaCl, 0.22 mM KH2PO4, 1.3 mM CaCl2, 0.8 mM MgSO4). Membranes were incubated with [^125I]PYY (80 pM) in the presence or absence of test compound for 1 h at rt. The reaction was stopped by filtration through GF/C filter plates pre-soaked in 0.3% polyethylenimine and subsequently washed with Tris 50 mM, 5 mM EDTA buffer. Plates were dried for 1 h in a 55° C. oven, scintillation fluid was added and the radioactivity was counted in a Packard TopCount. Specific binding to the NPY receptor subtypes was determined by radioactivity that was bound in the presence of […] NPY. Each binding experiment was repeated three to eight times, each in duplicate. IC50 values (i.e. concentration of unlabelled peptide or antagonist required to compete for 50% of specific binding to the radioligand) were calculated using the GraphPad Prism software (GraphPad Software Inc., San Diego Calif.) with a fit to a sigmoidal dose response curve. Data were expressed as pIC50 values where pIC50=−log IC50.

[1] = membranes of KAN-Ts cells endogenously expressing Y2 receptors, [125I]PYY (80 pM), 1 h at rt

CC(=O)N1CCc2ccc(N(C(=O)/C=C/c3ccccc3)C3CCN(Cc4ccccc4)C3)cc21 (stereo not drawn) [Example 46, trans-N-(1-Acetyl-2,3-dihydro-1H-indol-6-yl)-N-(1-benzyl-pyrrolidin-3-yl)-3-phenyl-acrylamide]
IC50 [1]: 18 µM

CC(=O)N1CCc2ccc(N(CCCNCc3ccccc3)C(=O)/C=C/c3ccccc3)cc21 [Example 47, trans-N-(1-Acetyl-2,3-dihydro-1H-indol-6-yl)-N-(3-benzylamino-propyl)-3-phenyl-acrylamide]
IC50 [1]: 12 µM

CC(=O)N1CCc2ccc(N(C(=O)/C=C/c3ccccc3)C3CCN(C(=O)c4ccccc4)CC3)cc21 [Example 39, trans-N-(1-Acetyl-2,3-dihydro-1H-indol-6-yl)-N-(1-benzoyl-piperidin-4-yl)-3-phenyl-acrylamide]
IC50: 29 µM

C=CCN(CCCN(C(=O)/C=C/c1ccccc1)c1ccc2c(c1)N(C(C)=O)CC2)Cc1ccccc1 [Example 48, trans-N-(1-Acetyl-2,3-dihydro-1H-indol-6-yl)-N-[3-(allyl-benzyl-amino)-propyl]-3-phenyl-acrylamide]
IC50 [1]: 12 µM

CC(=O)N1CCc2ccc(N(C(=O)/C=C/c3ccccc3)C3CCCN(Cc4ccccc4)C3)cc21 (stereo not drawn) [Example 45, trans-N-(1-Acetyl-2,3-dihydro-1H-indol-6-yl)-N-(1-benzyl-piperidin-3-yl)-3-phenyl-acrylamide]
IC50 [1]: 16 µM
